Reference: ChEMBL document CHEMBL5038615, “Discovery of a cinnamyl piperidine derivative as new neddylation inhibitor for gastric cancer treatment” (Eur J Med Chem, 2021)
Activity calls are given as the source filed them. The rule behind the calls is not given here.

Tests used:
MGC-803 [1] = assay: Induction of apoptosis in human MGC-803 cells assessed as late apoptotic cells at 2.5 uM measured after 24 hrs by AnnexinV/FITC staining based flow cytometry method (reference value: 2%); type: functional
HGC-27 [2] = assay: Antiproliferative activity against human HGC-27 cells assessed as cell survival at 7.5 uM preincubated with Z-VAD-FMK followed by compound addition and measured after 24 hrs by MTT assay; type: functional, cell-based
HGC-27 [3] = assay: Induction of apoptosis in human HGC-27 cells assessed as upregulation of Bax at 3 to 9 uM measured after 24 hrs by Western blot assay; type: functional, cell-based; details: dose 3-9 µM
MGC-803 [4] = assay: Induction of apoptosis in human MGC-803 cells assessed as necrotic cells at 5 uM measured after 24 hrs by AnnexinV/FITC staining based flow cytometry method (reference value: 1.9%); type: functional
HGC-27 [5] = assay: Induction of apoptosis in human HGC-27 cells assessed as upregulation of Bid at 3 to 9 uM measured after 24 hrs by Western blot assay; type: functional, cell-based; details: dose 3-9 µM
MGC-803 [6] = assay: Induction of apoptosis in human MGC-803 cells assessed as viable cells at 7.5 uM measured after 24 hrs by AnnexinV/FITC staining based flow cytometry method (reference value: 94.8%); type: functional; details: read-out: Activity
HGC-27 [7] = assay: Induction of apoptosis in human HGC-27 cells assessed as late apoptotic cells at 6 uM measured after 48 hrs by AnnexinV/FITC staining based flow cytometry method (reference value: 1%); type: functional
MGC-803 [8] = assay: Induction of apoptosis in human MGC-803 cells assessed as upregulation of Bak at 2.5 to 7.5 uM measured after 24 hrs by Western blot assay; type: functional, cell-based; details: dose 2.5-7.5 µM
MGC-803 [9] = assay: Induction of apoptosis in human MGC-803 cells assessed as reduction of mitochondrial membrane potential at 2.5 uM measured after 24 hrs by JC-1 staining based Flowcytometry assay (reference value: 3.8%); type: functional; design: scale not given: the % may be the effect or the level left
HGC-27 [10] = assay: Induction of apoptosis in human HGC-27 cells assessed as ROS levels at 9 uM measured after 24 hrs by DCFH-DA staining based flow cytometry assay (reference value: 6.8%); type: functional
MGC-803 [11] = assay: Induction of apoptosis in human MGC-803 cells assessed as early apoptotic cells at 5 uM measured after 48 hrs by AnnexinV/FITC staining based flow cytometry method (reference value: 1.5%); type: functional
[12] = target: T1, NEDD8-activating enzyme E1 regulatory subunit (Homo sapiens) (UniProt Q13564); assay: Inhibition of NAE-mediated neddylation in human MGC-803 cells assessed as cullin4B-Nedd8 adduct formation at 2.5 to 7.5 uM measured after 24 hrs by western blot assay; type: cell-based; details: dose 2.5-7.5 µM
T1 sequence (whole entry): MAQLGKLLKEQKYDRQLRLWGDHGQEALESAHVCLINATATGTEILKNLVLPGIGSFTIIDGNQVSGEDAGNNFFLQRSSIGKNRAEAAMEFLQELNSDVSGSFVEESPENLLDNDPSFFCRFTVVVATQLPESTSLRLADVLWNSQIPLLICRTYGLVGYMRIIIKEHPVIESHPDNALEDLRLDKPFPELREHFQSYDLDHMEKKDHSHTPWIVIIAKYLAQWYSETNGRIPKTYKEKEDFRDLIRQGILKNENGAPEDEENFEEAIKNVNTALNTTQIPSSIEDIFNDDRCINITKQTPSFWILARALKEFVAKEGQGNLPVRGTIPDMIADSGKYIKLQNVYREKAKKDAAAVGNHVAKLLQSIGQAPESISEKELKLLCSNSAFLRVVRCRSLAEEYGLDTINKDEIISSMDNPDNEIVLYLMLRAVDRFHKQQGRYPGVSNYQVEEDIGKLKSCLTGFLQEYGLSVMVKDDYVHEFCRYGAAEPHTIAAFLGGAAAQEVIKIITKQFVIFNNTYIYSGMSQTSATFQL

MGC-803 [13] = assay: Induction of apoptosis in human MGC-803 cells assessed as early apoptotic cells at 5 uM measured after 24 hrs by AnnexinV/FITC staining based flow cytometry method (reference value: 1.3%); type: functional
MCF7 = assay: Antiproliferative activity against human MCF7 cells assessed as inhibition of cell proliferation measured after 72 hrs by MTT assay; type: functional, cell-based; details: MCF7, 72 h
HGC-27 [14] = assay: Induction of apoptosis in human HGC-27 cells assessed as viable cells at 3 uM measured after 48 hrs by AnnexinV/FITC staining based flow cytometry method (reference value: 93.18%); type: functional; details: read-out: Activity
MGC-803 [15] = assay: Induction of apoptosis in human MGC-803 cells assessed as early apoptotic cells at 2.5 uM measured after 48 hrs by AnnexinV/FITC staining based flow cytometry method (reference value: 1.5%); type: functional
MGC-803 [16] = assay: Induction of apoptosis in human MGC-803 cells assessed as upregulation of Bid at 2.5 to 7.5 uM measured after 24 hrs by Western blot assay; type: functional, cell-based; details: dose 2.5-7.5 µM
MGC-803 [17] = assay: Cell cycle arrest in human MGC-803 cells assessed as accumulation of cells at G2/M phase at 5 uM measured after 24 hrs by Flowcytometry assay (reference value: 13.71%); type: functional
HepG2 = assay: Antiproliferative activity against human HepG2 cells assessed as inhibition of cell proliferation measured after 72 hrs by MTT assay; type: functional, cell-based; details: HepG2, 72 h
HGC-27 [18] = assay: Induction of apoptosis in human HGC-27 cells assessed as early apoptotic cells at 6 uM measured after 48 hrs by AnnexinV/FITC staining based flow cytometry method (reference value: 5.8%); type: functional
MGC-803 [19] = assay: Induction of apoptosis in human MGC-803 cells assessed as late apoptotic cells at 7.5 uM measured after 48 hrs by AnnexinV/FITC staining based flow cytometry method (reference value: 0.9%); type: functional
HGC-27 [20] = assay: Induction of apoptosis in human HGC-27 cells assessed as necrotic cells at 6 uM measured after 24 hrs by AnnexinV/FITC staining based flow cytometry method (reference value: 1.2%); type: functional
MGC-803 [21] = assay: Induction of apoptosis in human MGC-803 cells assessed as late apoptotic cells at 2.5 uM measured after 48 hrs by AnnexinV/FITC staining based flow cytometry method (reference value: 0.9%); type: functional
HGC-27 [22] = assay: Induction of apoptosis in human HGC-27 cells assessed as viable cells at 6 uM measured after 24 hrs by AnnexinV/FITC staining based flow cytometry method (reference value: 95.7%); type: functional; details: read-out: Activity
MGC-803 [23] = assay: Cell cycle arrest in human MGC-803 cells assessed as accumulation of cells at S phase at 5 uM measured after 24 hrs by Flowcytometry assay (reference value: 36.51%); type: functional
MGC-803 [24] = assay: Induction of apoptosis in human MGC-803 cells assessed as up-regulation of Nrf2 expression in cytoplasm at 2.5 to 7.5 uM measured after 24 hrs by Western blot assay; type: functional, cell-based; details: dose 2.5-7.5 µM
HGC-27 [25] = assay: Induction of apoptosis in human HGC-27 cells assessed as viable cells at 9 uM measured after 24 hrs by AnnexinV/FITC staining based flow cytometry method (reference value: 95.7%); type: functional; details: read-out: Activity
[26] = Toxicity in NOD-SCID mouse xenografted with human MGC-803 cells assessed as change in body weight at 50 to 100 mg/kg/day, IG measured after 21 days; type: organism-based; details: in vivo, po, 504 h, dose 50-100 mg/kg/day, time 21 day

With CCCCCc1ccc(NC(=O)C2CCN(C/C=C/c3ccccc3)CC2)cc1 the Activity (MGC-803 [1]) was 3.6%, the Activity (HGC-27 [2]) was “Active” and the Activity (HGC-27 [3]) was “Dose-Dependent Effect”. The Activity (MGC-803 [4]) was 8.2%, the Activity (HGC-27 [5]) was “Dose-Dependent Effect” and the viability at 7.5 µM (MGC-803 [6]) was 9.1%. The Activity (HGC-27 [7]) was 21.2%, the Activity (MGC-803 [8]) was “Dose-Dependent Effect” and the Activity (MGC-803 [9]) was 4%. For the same compound, the Activity (HGC-27 [10]) was 25.7%, the Activity (MGC-803 [11]) was 9.8% and the inhibition [12] was “inactive”. It also gave an Activity (MGC-803 [13]) of 0.8%, an IC50 (MCF7) of 3.74 µM and a viability at 3 µM (HGC-27 [14]) of 64.4%. The Activity (MGC-803 [15]) was 3%, the Activity (MGC-803 [16]) was “Dose-Dependent Effect” and the Activity (MGC-803 [17]) was 19.31%. For the same compound, the IC50 (HepG2) was 2.89 µM, the Activity (HGC-27 [18]) was 32.2% and the Activity (MGC-803 [19]) was 95.6%. The Activity (HGC-27 [20]) was 0.2%, the Activity (MGC-803 [21]) was 43.5% and the viability at 6 µM (HGC-27 [22]) was 25.4%. For the same compound, the Activity (MGC-803 [23]) was 33.81%, the Activity (MGC-803 [24]) was “Active” and the viability at 9 µM (HGC-27 [25]) was 20.9%. The Activity [26] was “Non-Toxic”.
